In patent publication US7109354B2, “Thiophene amidines, compositions thereof, and methods of treating complement-mediated diseases and conditions” (3-Dimensional Pharmaceuticals, Inc., priority 2002, dated 2006):
Where “and” joins values, the source holds several entries; their conditions need not be identical. Identical values can stand only once. Counter-ions that a name gives are not always drawn.

Biological target: T1, Activated human C1s (Homo sapiens, UniProt P09871)
T1 construct: purchased Calbiochem (La Jolla, Calif.)
T1 sequence (P09871 438-688 limits assumed): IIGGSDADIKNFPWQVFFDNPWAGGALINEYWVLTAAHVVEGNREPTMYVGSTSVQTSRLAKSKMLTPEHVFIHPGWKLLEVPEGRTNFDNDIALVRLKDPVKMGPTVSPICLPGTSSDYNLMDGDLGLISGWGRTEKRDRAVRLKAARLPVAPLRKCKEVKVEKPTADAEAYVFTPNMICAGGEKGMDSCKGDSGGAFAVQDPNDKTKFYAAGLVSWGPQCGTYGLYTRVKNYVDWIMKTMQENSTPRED
T1 sequence (P09871 16-437 partner limits assumed): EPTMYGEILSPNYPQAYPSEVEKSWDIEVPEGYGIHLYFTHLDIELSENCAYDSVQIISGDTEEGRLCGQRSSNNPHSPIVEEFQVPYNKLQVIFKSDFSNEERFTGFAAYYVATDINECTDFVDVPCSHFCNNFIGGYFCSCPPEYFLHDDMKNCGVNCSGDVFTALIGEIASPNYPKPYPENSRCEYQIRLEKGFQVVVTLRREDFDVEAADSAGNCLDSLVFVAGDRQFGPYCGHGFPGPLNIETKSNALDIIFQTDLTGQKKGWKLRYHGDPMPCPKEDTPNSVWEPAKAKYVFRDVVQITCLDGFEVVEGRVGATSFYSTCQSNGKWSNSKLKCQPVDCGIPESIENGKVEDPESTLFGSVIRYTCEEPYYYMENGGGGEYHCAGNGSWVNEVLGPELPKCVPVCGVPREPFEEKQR
Assay: In vitro inhibition of C1s (Ki determination, C1s-catalyzed hydrolysis of Z-Gly-Arg-S-Bzl, DTNB readout)
Assay type: biochemical
Details: substrate Z-Gly-Arg-S-Bzl 45 μM, DTNB 200 μM, C1s 2.3 nM, pH 7.5, 37° C., absorbance at 405 nm
Procedure: Reagents: All buffer salts were obtained from Sigma Chemical Company (St. Louis, Mo.), and were of the highest purity available. DTNB was purchased from Pierce (Rockford, Ill.). Z-Gly-Arg-S-Bzl was purchased from Enzyme Systems Products (Livermore, Calif.). Activated human C1s was purchased from Calbiochem (La Jolla, Calif.).
Test compounds are prepared as a 10 μM solution in DMSO. Dilutions are prepared in DMSO yielding 7 final concentrations encompassing a 700-fold concentration range.
Reactions were initiated by the addition of a 10 μL aliquot of the enzyme, and the absorbance increase at 405 nm is continuously recorded for 15 minutes in a Molecular Devices plate reader. Final DMSO concentration was 4.3%. […] The ratio of the velocity (rate of change in absorbance as a function of time) for a sample containing no test compound is divided by the velocity of a sample containing test compound, and is plotted as a function of test compound concentration. The data are fit to a linear regression, and the value of the slope of the line calculated. The inverse of the slope is the experimentally determined Ki value.

Row | Structure (SMILES) | Ki
1 | C=Cc1ccccc1-c1cccc(S(=O)(=O)c2cc(C(=N)N)sc2SC)c1 [Example 87, 5-methylsulfanyl-4-(2′-vinyl-biphenyl-3-sulfonyl)-thiophene-2-carboxamidine] | 6 to 23 nM
2 | CSc1sc(C(=N)N)cc1S(=O)(=O)c1cccc(-c2ccc(NC(=O)NCCCS(C)(=O)=O)cc2C)c1 [Example 296, 4-{4′-[3-(3-Methanesulfonyl-propyl)-ureido]-2′-methyl-biphenyl-3-sulfonyl}-5-methylsulfanyl-thiophene-2-carboxamidine trifluoroacetate] | 6 to 23 nM
3 | CSc1sc(C(=N)N)cc1S(=O)(=O)c1cccc(-c2ccc(C(F)(F)F)cc2)c1 [Example 54, 5-Methylsulfanyl-4-(4′-trifluoromethyl-biphenyl-3-sulfonyl)-thiophene-2-carboxamidine] | 6 to 23 nM
4 | CSc1sc(C(=N)N)cc1S(=O)(=O)c1cccc(-c2ccc(NC(N)=NCCCc3ccccc3)cc2C)c1 [Example 280, 4-{2′-Methyl-4′-[N′-(3-phenyl-propyl)-guanidino]-biphenyl-3-sulfonyl}-5-methylsulfanyl-thiophene-2-carboxamidine bistrifluoroacetate] | 6 to 23 nM
5 | CSc1sc(C(=N)N)cc1S(=O)(=O)c1cccc(-c2cccc(C=O)c2)c1 [Example 61, 4-(3′-Formyl-biphenyl-3-sulfonyl)-5-methylsulfanyl-thiophene-2-carboxamidine] | 6 to 23 nM and 6 nM
6 | CSc1sc(C(=N)N)cc1S(=O)(=O)c1cccc(-c2c(C)noc2C)c1 [Example 89, 4-[3-(3,5-dimethyl-isoxazol-4-yl)-benzenesulfonyl]-5-methylsulfanyl-thiophene-2-carboxamidine] | 6 to 23 nM
7 | CSc1sc(C(=N)N)cc1S(=O)(=O)c1cccc(-c2cccc(O)c2)c1 [Example 35, 4-(3′-Hydroxy-biphenyl-3-sulfonyl)-5-methylsulfanyl-thiophene-2-carboxamidine trifluoroacetate] | 6 to 23 nM
8 | CSc1sc(C(=N)N)cc1S(=O)(=O)c1cccc(-c2c(C)cccc2C(=O)O)c1 [Example 4, 3′-(5-Carbamimidoyl-2-methylsulfanyl-thiophene-3-sulfonyl)-6-methyl-biphenyl-2-carboxylic acid trifluoroacetate] | 6 to 23 nM
9 | CSc1sc(C(=N)N)cc1S(=O)(=O)c1cccc(-c2ccc3cccnc3c2)c1 [Example 59, 5-Methylsulfanyl-4-(3-quinolin-7-yl-benzenesulfonyl)-thiophene-2-carboxamidine] | 6 to 23 nM
10 | CSc1sc(C(=N)N)cc1S(=O)(=O)c1cccc(-c2ccc(N(C)C(=N)N)cc2C)c1 [Example 262, 4-[2′-Methyl-4′-(N-methyl-guanidino)-biphenyl-3-sulfonyl]-5-methylsulfanyl-thiophene-2-carboxamidine bis-trifluoroacetate] | 6 to 23 nM
11 | CSc1sc(C(=N)N)cc1S(=O)(=O)c1cccc(-c2ccccc2C(F)(F)F)c1 [Example 67, 5-Methylsulfanyl-4-(2′-trifluoromethyl-biphenyl-3-sulfonyl)-thiophene-2-carboxamidine] | 6 to 23 nM
12 | CSc1sc(C(=N)N)cc1S(=O)(=O)c1cccc(-c2cccc(-c3ccccc3)c2)c1 [Example 65, 5-Methylsulfanyl-4-([1,1′;3′,1″]terphenyl-3-sulfonyl)-thiopbene-2-carboxamidine] | 6 to 23 nM
13 | CSc1sc(C(=N)N)cc1S(=O)(=O)c1cccc(-c2ccc(C#N)cc2)c1 [Example 84, 4-(4′-cyano-biphenyl-3-sulfonyl)-5-methylsulfanyl-thiophene-2-carboxamidine] | 6 to 23 nM
14 | CCOc1cccc(-c2cccc(S(=O)(=O)c3cc(C(=N)N)sc3SC)c2)c1 [Example 95, 4-(3′-ethoxy-biphenyl-3-sulfonyl)-5-methylsulfanyl-thiophene-2-carboxamidine] | 6 to 23 nM
15 | CSc1sc(C(=N)N)cc1S(=O)(=O)c1cccc(-c2ccc(N)cc2C)c1 [Example 220, 4-(4′-Amino-2′-methyl-biphenyl-3-sulfonyl)-5-methylsulfanyl-thiophene-2-carboxamidine bis-trifluoroacetate] | 6 to 23 nM
16 | CSc1sc(C(=N)N)cc1S(=O)(=O)c1cc(-c2ccccc2C)c2ncn(C)c2c1 [Example 108, 5-methylsulfanyl-4-(3-methyl-7-o-tolyl-3H-benzoimidazole-5-sulfonyl)-thiophene-2-carboxamidine trifluoroacetate] | 6 to 23 nM
17 | CSc1sc(C(=N)N)cc1S(=O)(=O)c1cccc(-c2c(C)cc(NC(=N)N)cc2NC(=O)CCCCC(=O)O)c1 [Example 261, 5-[3′-(5-Carbamimidoyl-2-methylsulfanyl-thiophene-3-sulfonyl)-4-guanidino-6-methyl-biphenyl-2-ylcarbamoyl]-pentanoic acid bis-trifluoroacetate] | 6 to 23 nM
18 | CSc1sc(C(=N)N)cc1S(=O)(=O)c1cccc(-c2cc(-c3ccccc3)ccc2O)c1 [Example 1, 4-(4′-Hydroxy-[1,1′;3′,1′]terphenyl-3′-sulfonyl)-5-methylsulfanyl-thiophene-2-carboxamidine trifluoroacetate] | 6 to 23 nM
19 | CSc1sc(C(=N)N)cc1S(=O)(=O)c1cccc(-c2cc(C(F)(F)F)cc(C(F)(F)F)c2)c1 [Example 48, 4-(3′,5′-Bis-trifluoromethyl-biphenyl-3-sulfonyl)-5-methylsulfanyl-thiophene-2-carboxamidine] | 6 to 23 nM
20 | CSc1sc(C(=N)N)cc1S(=O)(=O)c1cccc(-c2cccc(N)c2)c1 [Example 62, 4-(3′-Amino-biphenyl-3-sulfonyl)-5-methylsulfanyl-thiophene-2-carboxamidine] | 6 to 23 nM
21 | CSc1sc(C(=N)N)cc1S(=O)(=O)c1cccc(-c2cccc(C(=O)C(F)(F)F)c2)c1 [Example 29, 5-Methylsulfanyl-4-[3′-(2,2,2-trifluoro-acetyl)-biphenyl-3-sulfonyl]-thiophene-2-carboxamidine trifluoroacetate] | 6 to 23 nM
22 | CSc1sc(C(=N)N)cc1S(=O)(=O)c1cccc(-c2cc(Cl)ccc2Cl)c1 [Example 47, 4-(2′,5′-Dichloro-biphenyl-3-sulfonyl)-5-methylsulfanyl-thiophene-2-carboxamidine] | 6 to 23 nM
23 | COc1cc(Br)cc(S(=O)(=O)c2cc(C(=N)N)sc2SC)c1 [Example 13, 4-(3-Bromo-5-methoxy-benzenesulfonyl)-5-methylsulfanyl-thiophene-2-carboxamidine hydrochloride] | 6 to 23 nM
24 | COc1ccc(-c2cccc(S(=O)(=O)c3cc(C(=N)N)sc3SC)c2)c(OC)c1 [Example 41, 4-(2′,4′-Dimethoxy-biphenyl-3-sulfonyl)-5-methylsulfanyl-thiophene-2-carboxamidine] | 6 to 23 nM
25 | COC(=O)CCSCC(=O)Nc1cc(NC(=N)N)cc(C)c1-c1cccc(S(=O)(=O)c2cc(C(=N)N)sc2SC)c1 [Example 238, 3-{[3′-(5-Carbamimidoyl-2-methylsulfanyl-thiophene-3-sulfonyl)-4-guanidino-6-methyl-biphenyl-2-ylcarbamoyl]-methylsulfanyl}-propionic acid methyl ester bis-trifluoroacetate] | 6 to 23 nM
26 | CSc1sc(C(=N)N)cc1S(=O)(=O)c1cccc(-c2ccc(-c3ccccc3)c(F)c2)c1 [Example 82, 4-(2′-Fluoro-[1,1′;4′,1″]terphenyl-3″-sulfonyl)-5-methylsulfanyl-thiophene-2-carboxamidine] | 6 to 23 nM
